In experiment [1] the test system is MIAPaCa-2 human pancreatic tumor cells. Put plainly: Xenogeneic mouse human pancreatic cancer model, tumors harvested at mortality (size, weight, vasculature, palpation). The note with it: Example 1, single agents: Group 2 Coenzyme Q10 IV 50 mg/kg/day; Group 3 gemcitabine 150 mg/kg/week; FIG. 2. The format is in vivo, NOD scid gamma (NSG) mice.
Experiment [2] shares this test system. The experiment in a line: Xenogeneic mouse human pancreatic cancer model, survival. The note with it: Example 1, Regimen 1, single agent: IV 4% Coenzyme Q10 50 mg/kg/day, or IV gemcitabine 150 mg/kg/week for 3 weeks with one week rest; FIG. 1. It counts as in vivo, NOD scid gamma (NSG) mice.
The test system of experiment [3] is Mycosis fungoides (cutaneous T Cell lymphoma). The conditions noted are these: methotrexate as a single agent; cited from earlier work.
The test system of experiment [4] is acute lymphoblastic leukemias. The note with it: in combination with 60 mg/m^2 of prednisone, given daily; usually within 4 to 6 weeks; cited from earlier work.

Regarding `Nc1ccn([C@@H]2O[C@H](CO)[C@@H](O)C2(F)F)c(=O)n1` [gemcitabine, reference compound], in experiment [1], the “Growth of pancreatic tumors (tumor size at time of death) vs control” value is “inhibited the growth of pancreatic tumors”. In addition, in experiment [2], the “Survival (prolongation of life) compared to untreated control” value is recorded as “prolongation of life as compared to untreated control”.
Take `CN(Cc1cnc2nc(N)nc(N)c2n1)c1ccc(C(=O)N[C@@H](CCC(=O)O)C(=O)O)cc1` [Methotrexate]: the “Clinical responses, patients treated” value in experiment [3] is given as 50% of patients treated. Dosage in early stages is usually 5 to 50 mg once. The “Remissions, patients treated” value in experiment [4] is “prednisone, given daily, produced remissions in 50% of patients treated,”.
